Columns and labels:
MAPK14 (human) [1] = biological target: MAPK14 (human) (UniProt Q16539); experiment: Inhibition of MAPK14 Kinase Activity by PHAS-I Assay; conditions: for inhibition: concentration not given here
MAPK14 (human) [2] = biological target: MAPK14 (human) (UniProt Q16539); experiment: Inhibition of LPS Stimulated TNF Production by U937 Cells; conditions: for inhibition: concentration not given here

Sequence of MAPK14 (human) (Q16539 whole entry, looked up): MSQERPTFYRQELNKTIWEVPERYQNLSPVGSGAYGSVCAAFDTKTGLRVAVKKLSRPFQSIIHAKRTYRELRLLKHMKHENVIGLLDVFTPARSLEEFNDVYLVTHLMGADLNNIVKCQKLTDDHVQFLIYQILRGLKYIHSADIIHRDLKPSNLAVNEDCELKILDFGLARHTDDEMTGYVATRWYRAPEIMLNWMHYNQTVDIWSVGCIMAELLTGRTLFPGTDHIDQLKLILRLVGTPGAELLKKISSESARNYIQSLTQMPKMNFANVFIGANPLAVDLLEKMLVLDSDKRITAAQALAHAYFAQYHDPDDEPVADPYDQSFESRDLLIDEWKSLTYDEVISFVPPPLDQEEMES

| inhibition (MAPK14 (human) [1]) | Compound | further results |
| --- | --- | --- |
| 89% | CCCCCCCOc1ccc(NC(=O)Cn2nc(-c3ccc(F)cc3)c(-c3ccncc3)c2C)cc1 | – |
| 75% | CC(C)COC(=O)NCCc1[nH]nc(-c2ccc(F)cc2)c1-c1ccncc1 | – |
| 33% | Cc1c(-c2ccncc2)c(-c2ccc(F)cc2)nn1CC(=O)N1Cc2ccsc2CC1c1ccc(Cl)cc1 (stereo not given) | – |
| 90% | NC(=O)NCCCc1[nH]nc(-c2ccc(F)cc2)c1-c1ccncc1 | – |
| 73% | O=C(NCc1[nH]nc(-c2ccc(F)cc2)c1-c1ccncc1)c1cc(Cl)ccc1F | – |
| 73% | Cc1c(-c2ccncc2)c(-c2ccc(F)cc2)nn1CC(=O)N1CCCC1 | – |
| 70% | O=C(NCCCc1[nH]nc(-c2ccc(F)cc2)c1-c1ccncc1)c1cccc(Br)c1 | – |
| 84% | CC(C)S(=O)(=O)NCCCc1[nH]nc(-c2ccc(F)cc2)c1-c1ccncc1 | – |
| 83% | COc1ccc(NC(=O)NCCCc2[nH]nc(-c3ccc(F)cc3)c2-c2ccncc2)c(OC)c1 | – |
| 87% | CCCCS(=O)(=O)NCCCc1[nH]nc(-c2ccc(F)cc2)c1-c1ccncc1 | – |
| 94% | Cc1c(-c2ccncc2)c(-c2ccc(F)cc2)nn1CC(=O)Nc1ccc(Cl)nc1 | – |
| 89% | CCN(CC)C(=O)NCCCc1[nH]nc(-c2ccc(F)cc2)c1-c1ccncc1 | – |
| 82% | CSc1ccccc1NC(=O)Cn1nc(-c2ccc(F)cc2)c(-c2ccncc2)c1C | – |
| 87% | CCOC(=O)c1cc(-c2ccc(NC(=O)Cn3nc(-c4ccc(F)cc4)c(-c4ccncc4)c3C)cc2)oc1C | – |
| 84% | Cc1ccc(C)c(C(=O)c2ccccc2NC(=O)Cn2nc(-c3ccc(F)cc3)c(-c3ccncc3)c2C)c1 | – |
| 66% | O=C(NCCCc1[nH]nc(-c2ccc(F)cc2)c1-c1ccncc1)c1ccc(I)cc1 | – |
| 64% | O=C(NCCCc1[nH]nc(-c2ccc(F)cc2)c1-c1ccncc1)c1ccc(F)cc1 | – |
| 46% | CCN(CC)CC(C)NC(=O)Cn1nc(-c2ccc(F)cc2)c(-c2ccncc2)c1C (stereo not given) | – |
| 75% | Cc1c(-c2ccncc2)c(-c2ccc(F)cc2)nn1CC(=O)Nc1ccc(OCCOc2ccccc2)cc1 | – |
| 45% | Cc1c(-c2ccncc2)c(-c2ccc(F)cc2)nn1CC(=O)NC1CCCCC1C1CCCCC1 (stereo not given) | – |
| 75% | CCCCC(C)NC(=O)Cn1nc(-c2ccc(F)cc2)c(-c2ccncc2)c1C (stereo not given) | – |
| 78% | Cc1c(-c2ccncc2)c(-c2ccc(F)cc2)nn1CC(=O)N1CCCCC1 | – |
| 38% | Cc1c(-c2ccncc2)c(-c2ccc(F)cc2)nn1CC(=O)NC1CCC(C(C)(C)C)CC1 (stereo not given) | – |

The remaining lines, values behind:

| Compound | inhibition (MAPK14 (human) [1]) | further results |
| --- | --- | --- |
| Cc1c(-c2ccncc2)c(-c2ccc(F)cc2)nn1CC(=O)Nc1ccc(C(F)(F)F)cc1 | 81% | – |
| O=C(NCCCc1[nH]nc(-c2ccc(F)cc2)c1-c1ccncc1)N1CCCC1 | 86% | – |
| Cc1c(-c2ccncc2)c(-c2ccc(F)cc2)nn1CC(=O)NC1CCCc2ccccc21 (stereo not given) | 76% | – |
| CC1CCCCN1CCCNc1cc(-c2c[nH]nc2-c2ccc(F)cc2)ccn1 (stereo not given) | – | IC50 (MAPK14 (human) [1]): 530 nM |
| Cc1c(-c2ccncc2)c(-c2ccc(F)cc2)nn1CC(=O)N(CCC#N)CC1CCCO1 (stereo not given) | 58% | – |
| O=C(NCCCc1[nH]nc(-c2ccc(F)cc2)c1-c1ccncc1)c1ccccc1 | 78% | – |
| COc1cccc(C(=O)N[C@@H](C)c2[nH]nc(-c3ccc(F)cc3)c2-c2ccncc2)c1 | – | IC50 (MAPK14 (human) [1]): 1370 nM |
| CCCCNS(=O)(=O)c1cccc(NC(=O)Cn2nc(-c3ccc(F)cc3)c(-c3ccncc3)c2C)c1 | 77% | – |
| CCOC(=O)N1CCC(NC(=O)Cn2nc(-c3ccc(F)cc3)c(-c3ccncc3)c2C)CC1 | 72% | – |
| O=C(NCCCc1[nH]nc(-c2ccc(F)cc2)c1-c1ccncc1)c1ccccc1I | 66% | – |
| COc1ccc(-c2[nH]nc(C)c2-c2ccncc2)cc1Cl | – | IC50 (MAPK14 (human) [1]): 100 nM |
| CC(=O)N1CCN(C(=O)Cn2nc(-c3ccc(F)cc3)c(-c3ccncc3)c2C)CC1 | 81% | – |
| CC(C)(C)C(=O)NCCCc1[nH]nc(-c2ccc(F)cc2)c1-c1ccncc1 | 87% | – |
| CC(C)(N)Cc1[nH]nc(-c2ccc(F)cc2)c1-c1ccncc1 | – | IC50 (MAPK14 (human) [1]): 110 nM |
| O=C(Cc1cccs1)NCCCc1[nH]nc(-c2ccc(F)cc2)c1-c1ccncc1 | 90% | – |
| Cc1c(-c2ccncc2)c(-c2ccc(F)cc2)nn1CC(=O)Nc1ccc(CSc2ccc(Cl)cc2)cc1 | 67% | – |
| O=C(NCCc1[nH]nc(-c2ccc(F)cc2)c1-c1ccncc1)C1CC1 | 85% | – |
| Cc1c(-c2ccncc2)c(-c2ccc(F)cc2)nn1CC(=O)N1CCOCC1 | 70% | – |
| O=C(NCc1[nH]nc(-c2ccc(F)cc2)c1-c1ccncc1)c1cccc2ccccc12 | 91% | – |
| O=S(=O)(NCCCc1[nH]nc(-c2ccc(F)cc2)c1-c1ccncc1)c1cccs1 | 84% | – |
| COC(=O)[C@H](CC(C)C)NC(=O)Cn1nc(-c2ccc(F)cc2)c(-c2ccncc2)c1C | 47% | – |
| Cc1c(-c2ccncc2)c(-c2ccc(F)cc2)nn1CC(=O)Nc1ccccc1C(C)(C)C | 84% | – |
| Cc1c(-c2ccncc2)c(-c2ccc(F)cc2)nn1CC(=O)Nc1ccccc1C(=O)NC1CCCCC1 | 87% | – |
| CCOC(=O)NCCCc1[nH]nc(-c2ccc(F)cc2)c1-c1ccncc1 | 94% | – |

| Compound | inhibition (MAPK14 (human) [1]) | further results |
| --- | --- | --- |
| Cc1c(-c2ccncc2)c(-c2ccc(F)cc2)nn1CC(=O)Nc1ccc(Cl)cc1 | 88% | – |
| COCC(=O)N[C@H]1CC[C@@H](c2[nH]nc(-c3ccc(Cl)cc3)c2-c2ccncc2)CC1 | – | IC50 (MAPK14 (human) [1]): 77 nM |
| Cc1cccc(C)c1NC(=O)NCCCc1[nH]nc(-c2ccc(F)cc2)c1-c1ccncc1 | 88% | – |
| CCOC(=O)CC(C)NC(=O)Cn1nc(-c2ccc(F)cc2)c(-c2ccncc2)c1C (stereo not given) | 43% | – |
| C[C@@H](NC(=O)NCc1[nH]nc(-c2ccc(F)cc2)c1-c1ccncc1)c1ccccc1 | – | IC50 (MAPK14 (human) [1]): 910 nM |
| Cc1ccc(S(=O)(=O)NCCCc2[nH]nc(-c3ccc(F)cc3)c2-c2ccncc2)cc1 | 68% | – |
| CC(C)C(=O)NCCCc1[nH]nc(-c2ccc(F)cc2)c1-c1ccncc1 | 79% | – |
| CC(C)OC(=O)NCCc1[nH]nc(-c2ccc(F)cc2)c1-c1ccncc1 | 85% | – |
| CCNC(=O)NCCCc1[nH]nc(-c2ccc(F)cc2)c1-c1ccncc1 | 89% | – |
| Cc1cccc(NC(=O)Cn2nc(-c3ccc(F)cc3)c(-c3ccncc3)c2C)c1 | 86% | – |
| CC[C@H](C)[C@H](NC(=O)Cn1nc(-c2ccc(F)cc2)c(-c2ccncc2)c1C)C(=O)OC | 38% | – |
| CC(=O)N[C@@H](C)c1[nH]nc(-c2ccc(F)cc2)c1-c1ccncc1 | – | IC50 (MAPK14 (human) [1]): 460 nM |
| O=C(Nc1ccccc1F)N[C@@H](Cc1ccccc1)c1[nH]nc(-c2ccc(F)cc2)c1-c1ccncc1 | – | IC50 (MAPK14 (human) [1]): 14000 nM |
| C[C@@H](NC(=O)[C@H]1CCCN1)c1[nH]nc(-c2ccc(F)cc2)c1-c1ccncc1 | – | inhibition (MAPK14 (human) [2]): 39% |
| Fc1ccc(-c2nn(CCN3CCOCC3)cc2-c2ccncc2)cc1 | – | IC50 (MAPK14 (human) [2]): 1830 nM |
| Cn1nc(-c2ccc(F)cc2)c(-c2ccncc2)c1Br | – | IC50 (MAPK14 (human) [2]): 1400 nM |
| O=C(N[C@H](Cc1ccccc1)c1[nH]nc(-c2ccc(F)cc2)c1-c1ccncc1)C1CC1 | – | IC50 (MAPK14 (human) [2]): > 1000 nM |
| O=C(NCc1[nH]nc(-c2ccc(F)cc2)c1-c1ccncc1)C1CCC1 | – | inhibition (MAPK14 (human) [2]): 28% |
| CCOC(=O)NCc1[nH]nc(-c2ccc(F)cc2)c1-c1ccncc1 | – | inhibition (MAPK14 (human) [2]): 48% |
| O=S(=O)(NCCc1[nH]nc(-c2ccc(F)cc2)c1-c1ccncc1)c1cc(Cl)c(Cl)s1 | – | inhibition (MAPK14 (human) [2]): 28% |
| C[C@H](NC(=O)c1cccc(Br)c1)c1[nH]nc(-c2ccc(F)cc2)c1-c1ccncc1 | – | inhibition (MAPK14 (human) [2]): 21% |
| COC(=O)CNc1n[nH]c(-c2ccc(F)cc2)c1-c1ccncc1 | – | IC50 (MAPK14 (human) [2]): > 10000 nM |
| Cn1nc(-c2ccc(F)cc2)c(-c2ccncc2)c1C(O)c1ccccc1 (stereo not given) | – | IC50 (MAPK14 (human) [2]): 349 nM |
| CCN(CC)CCn1cc(-c2ccncc2)c(-c2ccc(F)cc2)n1 | – | IC50 (MAPK14 (human) [2]): 509 nM |

| Compound | inhibition (MAPK14 (human) [1]) | further results |
| --- | --- | --- |
| C[C@H](NS(=O)(=O)c1cccc(Cl)c1Cl)c1[nH]nc(-c2ccc(F)cc2)c1-c1ccncc1 | – | inhibition (MAPK14 (human) [2]): 78% |
| Cc1ccccc1C(=O)N[C@H](C)c1[nH]nc(-c2ccc(F)cc2)c1-c1ccncc1 | – | inhibition (MAPK14 (human) [2]): 42% |
| CCc1ccc(S(=O)(=O)N[C@H](C)c2[nH]nc(-c3ccc(F)cc3)c2-c2ccncc2)cc1 | – | inhibition (MAPK14 (human) [2]): 92% |
| CCS(=O)(=O)N[C@H](C)c1[nH]nc(-c2ccc(F)cc2)c1-c1ccncc1 | – | inhibition (MAPK14 (human) [2]): 48% |
| C[C@H](NC(=O)c1c(F)cccc1C(F)(F)F)c1[nH]nc(-c2ccc(F)cc2)c1-c1ccncc1 | – | inhibition (MAPK14 (human) [2]): 59% |
| CC(Oc1ccccc1)C(=O)NCc1[nH]nc(-c2ccc(F)cc2)c1-c1ccncc1 (stereo not given) | – | IC50 (MAPK14 (human) [2]): 2260 nM |
| O=S(=O)(NCc1[nH]nc(-c2ccc(F)cc2)c1-c1ccncc1)c1c(Cl)cccc1Cl | – | inhibition (MAPK14 (human) [2]): 43% |
| O=C(NCCc1[nH]nc(-c2ccc(F)cc2)c1-c1ccncc1)c1ccc(C(F)(F)F)cc1 | – | inhibition (MAPK14 (human) [2]): 30% |
| O=C(N[C@H](Cc1ccccc1)c1[nH]nc(-c2ccc(F)cc2)c1-c1ccncc1)c1ccccn1 | – | IC50 (MAPK14 (human) [2]): > 1000 nM; inhibition (MAPK14 (human) [2]): 8% |
| O=C(NCCc1ccccc1)NCc1[nH]nc(-c2ccc(F)cc2)c1-c1ccncc1 | – | inhibition (MAPK14 (human) [2]): 9% |
| C[C@@H](NC(=O)c1cc(F)cc(C(F)(F)F)c1)c1[nH]nc(-c2ccc(F)cc2)c1-c1ccncc1 | – | inhibition (MAPK14 (human) [2]): 52% |
| O=S(=O)(Cc1ccccc1)NCc1[nH]nc(-c2ccc(F)cc2)c1-c1ccncc1 | – | IC50 (MAPK14 (human) [2]): 210 nM |
| Cc1cnccc1-c1cn(C)nc1-c1ccc(F)cc1 | – | IC50 (MAPK14 (human) [2]): 757 nM |
| Cc1ccc(F)cc1S(=O)(=O)NCc1[nH]nc(-c2ccc(F)cc2)c1-c1ccncc1 | – | inhibition (MAPK14 (human) [2]): 24% |
| COc1ccc(CNc2cc(-c3c[nH]nc3-c3ccc(Cl)cc3)ccn2)cc1 | – | IC50 (MAPK14 (human) [2]): 495 nM |
| Cc1ccc(C)c(S(=O)(=O)N[C@@H](C)c2[nH]nc(-c3ccc(F)cc3)c2-c2ccncc2)c1 | – | inhibition (MAPK14 (human) [2]): 80% |
| O=S(=O)(NCc1[nH]nc(-c2ccc(F)cc2)c1-c1ccncc1)c1ccc(F)cc1Cl | – | inhibition (MAPK14 (human) [2]): 40% |
| CC(C)=CC(=O)NCc1[nH]nc(-c2ccc(F)cc2)c1-c1ccncc1 | – | IC50 (MAPK14 (human) [2]): 11000 nM |
| C[C@H](NS(=O)(=O)c1ccc(CNC(=O)c2ccccc2)s1)c1[nH]nc(-c2ccc(F)cc2)c1-c1ccncc1 | – | inhibition (MAPK14 (human) [2]): 83% |
| CNC(=O)CC[C@H](NC(=O)COC)c1[nH]nc(-c2ccc(F)cc2)c1-c1ccncc1 | – | IC50 (MAPK14 (human) [2]): > 1000 nM |
| C[C@H](NC(=O)c1ccc(Cl)cc1Cl)c1[nH]nc(-c2ccc(F)cc2)c1-c1ccncc1 | – | inhibition (MAPK14 (human) [2]): 28% |
| NS(=O)(=O)c1ccc(CNC(=O)NCCCc2[nH]nc(-c3ccc(F)cc3)c2-c2ccncc2)cc1 | – | IC50 (MAPK14 (human) [2]): > 1000 nM |
| CCCOC(=O)N[C@H](C)c1[nH]nc(-c2ccc(F)cc2)c1-c1ccncc1 | – | inhibition (MAPK14 (human) [2]): 54% |
